The NIST ThermoML archive (doi:10.1016/j.tca.2005.08.012)

Experiments:
[1] = 101.33 kPa, Liquid, Vibrating tube method
[2] = xn = mol fraction of the nth substance listed; conditions: 101 kPa, Liquid, Vibrating tube method

CCCCN [1-butanamine]
[1]
Conditions	mass density [kg/m3]
303.15 K	728.65
313.15 K	719.17

CCCCN [1-butanamine] + C1CCCCC1
mass density [kg/m3], [2]
Conditions	x1 = 0.0097	x1 = 0.0197	x1 = 0.0282	x1 = 0.038	x1 = 0.0471	x1 = 0.0581	x1 = 0.0674	x1 = 0.0724	x1 = 0.0873
303.15 K	768.39	767.7	767.1	766.38	765.76	764.98	764.35	764.08	763.14
313.15 K	758.82	758.12	757.54	756.91	756.3	755.61	754.91	754.62	753.62

CCCCN [1-butanamine] + c1ccccc1
mass density [kg/m3], [2]
Conditions	x1 = 0.0094	x1 = 0.0195	x1 = 0.0284	x1 = 0.038	x1 = 0.048	x1 = 0.0588	x1 = 0.0669	x1 = 0.0764	x1 = 0.0859
303.15 K	866.8	865.19	863.77	862.3	860.74	859.06	857.8	856.32	854.84
313.15 K	856.12	854.55	853.17	851.7	850.16	848.5	847.27	845.82	844.4

c1ccccc1 [benzene]
[1]
Conditions	mass density [kg/m3]
303.15 K	868.3
313.15 K	857.59

C1CCCCC1 [cyclohexane]
[1]
Conditions	mass density [kg/m3]
303.15 K	769.1
313.15 K	759.52

CCCCNCCCC [dibutylamine]
[1]
Conditions	mass density [kg/m3]
303.15 K	752.28
313.15 K	743.44

CCCCNCCCC [dibutylamine] + C1CCCCC1
mass density [kg/m3], [2]
Conditions	x1 = 0.0109	x1 = 0.0204	x1 = 0.0298	x1 = 0.0392	x1 = 0.0493	x1 = 0.0583	x1 = 0.0689	x1 = 0.0797	x1 = 0.0881
303.15 K	768.53	768.07	767.62	767.24	766.84	766.46	766.05	765.6	765.27
313.15 K	759.01	758.59	758.19	757.79	757.36	756.99	756.55	756.11	755.77

CCCCNCCCC [dibutylamine] + c1ccccc1
mass density [kg/m3], [2]
Conditions	x1 = 0.0108	x1 = 0.0201	x1 = 0.03	x1 = 0.039	x1 = 0.0487	x1 = 0.0593	x1 = 0.0689	x1 = 0.0797	x1 = 0.0892
303.15 K	865.75	863.58	861.33	859.32	857.18	854.88	852.86	850.62	848.69
313.15 K	855.17	853.13	851	849.09	847.05	844.85	842.92	840.79	838.92

CCCNCCC [dipropylamine]
[1]
Conditions	mass density [kg/m3]
303.15 K	731.21
313.15 K	726.15

CCCNCCC [dipropylamine] + C1CCCCC1
mass density [kg/m3], [2]
Conditions	x1 = 0.0114	x1 = 0.0213	x1 = 0.0321	x1 = 0.0414	x1 = 0.0509	x1 = 0.0622	x1 = 0.0727	x1 = 0.0811	x1 = 0.0919
303.15 K	768.31	767.65	766.94	766.29	765.71	764.96	764.29	763.78	763.13
313.15 K	758.72	758.03	757.3	756.67	756.07	755.34	754.66	754.17	753.52

CCCNCCC [dipropylamine] + c1ccccc1
mass density [kg/m3], [2]
Conditions	x1 = 0.0105	x1 = 0.0207	x1 = 0.0306	x1 = 0.039	x1 = 0.0508	x1 = 0.0614	x1 = 0.0723	x1 = 0.0812	x1 = 0.0917
303.15 K	865.97	863.74	861.67	859.91	857.5	855.36	853.17	851.42	849.36
313.15 K	855.38	853.26	851.24	849.55	847.19	845.11	843	841.29	839.28

CCCN [propan-1-amine]
[1]
Conditions	mass density [kg/m3]
303.15 K	706.1
313.15 K	696.04

CCCN [propan-1-amine] + C1CCCCC1
mass density [kg/m3], [2]
Conditions	x1 = 0.0076	x1 = 0.0169	x1 = 0.0282	x1 = 0.0365	x1 = 0.0483	x1 = 0.057	x1 = 0.0652	x1 = 0.0747	x1 = 0.0859
303.15 K	768.47	767.75	766.86	766.22	765.3	764.61	763.97	763.25	762.47
313.15 K	758.92	758.21	757.38	756.8	755.92	755.27	754.68	753.96	753.15

CCCN [propan-1-amine] + c1ccccc1
mass density [kg/m3], [2]
Conditions	x1 = 0.0079	x1 = 0.0186	x1 = 0.028	x1 = 0.0366	x1 = 0.047	x1 = 0.0579	x1 = 0.0659	x1 = 0.0759	x1 = 0.0844
303.15 K	867.07	865.41	863.91	862.58	860.86	859.18	857.86	856.37	854.97
313.15 K	856.39	854.75	853.34	852.02	850.44	848.78	847.56	846.03	844.73

CCCCN(CCCC)CCCC [tributylamine]
[1]
Conditions	mass density [kg/m3]
303.15 K	770.21
313.15 K	763.11

CCCCN(CCCC)CCCC [tributylamine] + C1CCCCC1
mass density [kg/m3], [2]
Conditions	x1 = 0.0103	x1 = 0.0216	x1 = 0.0318	x1 = 0.0402	x1 = 0.0516	x1 = 0.0598	x1 = 0.0709	x1 = 0.0807	x1 = 0.0861
303.15 K	768.92	768.75	768.65	768.57	768.46	768.38	768.26	768.18	768.14
313.15 K	759.38	759.25	759.17	759.09	758.99	758.97	758.92	758.91	758.99

CCCCN(CCCC)CCCC [tributylamine] + c1ccccc1
mass density [kg/m3], [2]
Conditions	x1 = 0.0102	x1 = 0.0206	x1 = 0.0302	x1 = 0.0404	x1 = 0.0499	x1 = 0.0596	x1 = 0.0698	x1 = 0.0796	x1 = 0.0874
303.15 K	865.38	862.54	860.05	857.48	855.12	852.77	850.4	848.22	846.53
313.15 K	854.76	852.03	849.61	847.12	844.87	842.65	840.38	838.28	836.65

CCN(CC)CC [triethylamine]
[1]
Conditions	mass density [kg/m3]
303.15 K	718.44
313.15 K	709.05

CCN(CC)CC [triethylamine] + C1CCCCC1
mass density [kg/m3], [2]
Conditions	x1 = 0.0102	x1 = 0.0192	x1 = 0.0299	x1 = 0.0422	x1 = 0.0498	x1 = 0.0618	x1 = 0.0712	x1 = 0.0799	x1 = 0.0895	x1 = 0.0995
303.15 K	768.28	767.5	766.58	765.57	764.97	764.04	763.35	762.72	762.05	761.36
313.15 K	758.66	757.93	757.05	756.07	755.48	754.54	753.86	753.22	752.62	751.88

CCN(CC)CC [triethylamine] + c1ccccc1
mass density [kg/m3], [2]
Conditions	x1 = 0.0102	x1 = 0.0209	x1 = 0.0311	x1 = 0.0395	x1 = 0.0501	x1 = 0.0618	x1 = 0.0712	x1 = 0.0804	x1 = 0.0919	x1 = 0.1
303.15 K	865.85	863.38	861.03	859.07	856.75	854.1	851.95	850	847.45	845.76
313.15 K	855.14	852.62	850.24	848.31	845.93	843.31	841.23	839.27	836.79	835.08

CCCN(CCC)CCC [tripropylamine]
[1]
Conditions	mass density [kg/m3]
303.15 K	749.15
313.15 K	740.41

CCCN(CCC)CCC [tripropylamine] + C1CCCCC1
mass density [kg/m3], [2]
Conditions	x1 = 0.0109	x1 = 0.02	x1 = 0.0305	x1 = 0.0406	x1 = 0.0511	x1 = 0.0596	x1 = 0.0693	x1 = 0.0787	x1 = 0.0878
303.15 K	768.54	768.11	767.6	767.14	766.65	766.35	765.93	765.54	765.16
313.15 K	758.99	758.57	758.14	757.71	757.28	756.93	756.56	756.18	755.84

CCCN(CCC)CCC [tripropylamine] + c1ccccc1
mass density [kg/m3], [2]
Conditions	x1 = 0.0104	x1 = 0.0206	x1 = 0.0307	x1 = 0.0402	x1 = 0.0497	x1 = 0.0596	x1 = 0.0693	x1 = 0.0788	x1 = 0.0889
303.15 K	865.5	862.82	860.21	857.87	855.54	853.15	850.88	848.69	846.42
313.15 K	854.85	852.24	849.71	847.43	845.18	842.85	840.66	838.55	836.35
